Values of other authors in US9937166B2 (INFLAMMATORY RESPONSE RESEARCH, INC., priority 2013, dated 2018).
Where two headings read alike, the source gives them in different places.

What was measured:
[1] = for Time to reach steady state level: administered orally
ALI/ARDS = conditions: in vivo
[2] = test system: IL-4, IL-6, IL-8, ICAM-1, TLR3, NF-kappa B
[3] = test system: histamine induced wheal and flare
[4] = in vivo
[5] = not given; remark: listed apart in the source
H1 receptor = H1 receptor (Homo sapiens, UniProt P35367); conditions: acidic pH, inflamed tissue
Sequence of H1 receptor (P35367 whole entry): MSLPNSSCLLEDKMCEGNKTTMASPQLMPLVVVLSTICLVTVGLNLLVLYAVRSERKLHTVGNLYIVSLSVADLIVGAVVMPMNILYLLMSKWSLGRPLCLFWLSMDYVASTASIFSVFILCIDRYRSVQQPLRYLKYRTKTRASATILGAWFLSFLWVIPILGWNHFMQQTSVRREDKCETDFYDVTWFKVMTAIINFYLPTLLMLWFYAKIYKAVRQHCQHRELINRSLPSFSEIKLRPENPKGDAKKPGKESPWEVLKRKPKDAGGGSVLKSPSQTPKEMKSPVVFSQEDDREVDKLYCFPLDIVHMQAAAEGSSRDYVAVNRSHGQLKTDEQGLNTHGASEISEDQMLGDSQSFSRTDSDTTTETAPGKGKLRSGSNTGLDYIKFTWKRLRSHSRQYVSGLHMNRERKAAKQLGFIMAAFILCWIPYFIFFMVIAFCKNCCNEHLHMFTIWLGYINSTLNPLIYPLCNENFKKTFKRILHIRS

influenza = conditions: in vivo

CC(C)(O)c1ccccc1CC[C@@H](SCC1(CC(=O)O)CC1)c1cccc(/C=C/c2ccc3ccc(Cl)cc3n2)c1 [montelukast]
Plasma concentration area under the curve profile, IV vs oral tablet ([1]; IV 7 mg vs approved 10 mg oral tablet): comparable | Time to reach steady state level [1]: two | Time to reach steady state level ([1]; listed as Montelukast): less than two | Absorption ([1]; in vivo): rapidly absorbed | Linear pharmacokinetics to dose ([1]; in vivo): ≤ 50 mg | Time to peak plasma concentration ([1]; in vivo): 3 to 4 h | Effect of a standard meal on oral bioavailability and C. ([1]; standard meal): not affected | Doses without clinically important adverse experiences (adult patients for 22 weeks): up to 200 mg/day | Doses without clinically important adverse experiences (short-term studies, approximately one week): up to 900 mg/day

C[C@@H](O)CCCCn1c(=O)c2c(ncn2C)n(C)c1=O [lisofylline]
Outcome in large trials for ALI/ARDS (ALI/ARDS): failed

O=C1N[C@H](C(=O)O)CS1 [procysteine]
Outcome in large trials for ALI/ARDS (ALI/ARDS): failed

CCCCC[C@H](O)/C=C/[C@H]1[C@H](O)CC(=O)[C@@H]1CCCCCCC(=O)O [alprostadil]
Outcome in large trials for ALI/ARDS (ALI/ARDS): failed

O=C(O)COCCN1CCN([C@H](c2ccccc2)c2ccc(Cl)cc2)CC1 [levocetirizine]
Inflammatory mediators IL-4, IL-6, and IL-8 [2]: decrease | ICAM-1, IL-6, IL-8, TLR3 expression and NF-kappa B activation ([2]; in vivo (so in the source)): decrease | Potency among the five modern generation antihistamines ([3]; histamine induced wheal and flare data): most potent | Effectiveness compared with fexofenadine ([3]; levocetirizine 5 mg per day vs fexofenadine 180 mg per day): more effective | Rhinovirus-induced ICAM-1 and cytokine expression and viral replication (airway epithelial cells): inhibits | Eosinophil migration (eosinophil migration): decrease | Steady-state level (time to) [4]: 40 h | Principal side effect experienced at higher doses ([5]; higher doses): Sedation | Doses that can be safely administered ([5]; humans): up to 30 mg/day | Enhanced receptor affinity over first generation mepyramine / first generation molecules (H1 receptor): up to 5 × | Enhanced receptor affinity over first generation mepyramine / first generation molecules (H1 receptor; listed as Levocetirizine): 5 ×

CC(=O)N1CCN(c2ccc(OCC3COC(Cn4ccnc4)(c4ccc(Cl)cc4Cl)O3)cc2)CC1 (centres unmarked) [ketoconazole]
Outcome in large trials for ALI/ARDS (ALI/ARDS): failed

CCOC(=O)C1=C[C@@H](OC(CC)CC)[C@H](NC(C)=O)[C@@H](N)C1 [oseltamivir]
Influenza related lower respiratory tract complications (influenza): did not appear to reduce

CC(=O)N[C@@H](CS)C(=O)O [N-acetylcysteine]
Outcome in large trials for ALI/ARDS (ALI/ARDS): failed
